Reference: PubChem BioAssay (NCI)
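Five concentrations, 48 hours, 96-well plates. TGI marks complete inhibition of growth.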

Key:
Assay in all cases: growth of human tumour cells (NCI), 48 h
COLO 205 colon = system: COLO 205 colon
ACHN renal = system: ACHN renal
UACC-257 melanoma = system: UACC-257 melanoma
HCT-15 colon = system: HCT-15 colon
HL-60(TB) leukemia = system: HL-60(TB) leukemia
HCT-116 colon = system: HCT-116 colon
A498 renal = system: A498 renal
M14 melanoma = system: M14 melanoma
MOLT-4 leukemia = system: MOLT-4 leukemia
DU-145 prostate = system: DU-145 prostate
TK-10 renal = system: TK-10 renal
RXF 393 renal = system: RXF 393 renal
786-0 renal = system: 786-0 renal
SW-620 colon = system: SW-620 colon
NCI-H460 lung = system: NCI-H460 lung
SF-268 CNS = system: SF-268 CNS
A549 NSCLC = system: A549 NSCLC
OVCAR-4 ovarian = system: OVCAR-4 ovarian
SK-OV-3 ovarian = system: SK-OV-3 ovarian
MDA-N = system: MDA-N
OVCAR-8 ovarian = system: OVCAR-8 ovarian
SK-MEL-5 melanoma = system: SK-MEL-5 melanoma
UO-31 renal = system: UO-31 renal
U251 CNS = system: U251 CNS
HCC-2998 colon = system: HCC-2998 colon
NCI-H23 lung = system: NCI-H23 lung
MDA-MB-231 breast = system: MDA-MB-231 breast
OVCAR-5 ovarian = system: OVCAR-5 ovarian
SNB-19 CNS = system: SNB-19 CNS
SF-539 CNS = system: SF-539 CNS
SF-295 CNS = system: SF-295 CNS
IGROV1 ovarian = system: IGROV1 ovarian
SNB-75 CNS = system: SNB-75 CNS
OVCAR-3 ovarian = system: OVCAR-3 ovarian
HT29 colon = system: HT29 colon
K-562 leukemia = system: K-562 leukemia
NCI-H522 lung = system: NCI-H522 lung
PC-3 prostate = system: PC-3 prostate
CAKI-1 renal = system: CAKI-1 renal
MDA-MB-435 = system: MDA-MB-435
NCI-H226 lung = system: NCI-H226 lung
NCI/ADR-RES ovarian = system: NCI/ADR-RES ovarian
UACC-62 melanoma = system: UACC-62 melanoma
SK-MEL-28 melanoma = system: SK-MEL-28 melanoma
HOP-92 NSCLC = system: HOP-92 NSCLC
MCF7 breast = system: MCF7 breast
SN12C renal = system: SN12C renal
LOX IMVI melanoma = system: LOX IMVI melanoma
SR leukemia = system: SR leukemia
SK-MEL-2 melanoma = system: SK-MEL-2 melanoma
T-47D breast = system: T-47D breast
EKVX NSCLC = system: EKVX NSCLC
MALME-3M melanoma = system: MALME-3M melanoma
HS 578T breast = system: HS 578T breast
KM12 colon = system: KM12 colon
HOP-62 NSCLC = system: HOP-62 NSCLC

COc1cc(C(=O)NC(CCN)(c2ccccc2)c2ccccc2)cc(OC)c1OC
TGI (COLO 205 colon): 19 µM
TGI (ACHN renal): > 31.6 µM
TGI (UACC-257 melanoma): 22.3 µM
TGI (HCT-15 colon): > 31.6 µM
TGI (HL-60(TB) leukemia): 18.5 µM
TGI (HCT-116 colon): > 95.3 µM
TGI (A498 renal): 17.5 µM
TGI (M14 melanoma): 19.1 µM
TGI (MOLT-4 leukemia): 21.5 µM
TGI (DU-145 prostate): > 31.6 µM
TGI (TK-10 renal): > 31.6 µM
TGI (RXF 393 renal): 27.6 µM
TGI (786-0 renal): > 31.6 µM
TGI (SW-620 colon): > 31.6 µM
TGI (NCI-H460 lung): > 31.6 µM
TGI (SF-268 CNS): > 31.6 µM
TGI (A549 NSCLC): > 31.6 µM
TGI (OVCAR-4 ovarian): > 31.6 µM
TGI (SK-OV-3 ovarian): > 31.6 µM
TGI (MDA-N): > 100 µM
TGI (OVCAR-8 ovarian): > 31.6 µM
TGI (SK-MEL-5 melanoma): 18 µM
TGI (UO-31 renal): > 64.4 µM
TGI (U251 CNS): > 100 µM
TGI (HCC-2998 colon): 19.8 µM
TGI (NCI-H23 lung): > 31.6 µM
TGI (MDA-MB-231 breast): > 31.5 µM
TGI (OVCAR-5 ovarian): > 100 µM
TGI (SNB-19 CNS): > 100 µM
TGI (SF-539 CNS): > 100 µM
TGI (SF-295 CNS): > 31.6 µM
TGI (IGROV1 ovarian): > 31.6 µM
TGI (SNB-75 CNS): 30.4 µM
TGI (OVCAR-3 ovarian): > 100 µM
TGI (HT29 colon): 28.3 µM
TGI (K-562 leukemia): 23.1 µM
TGI (NCI-H522 lung): > 100 µM
TGI (PC-3 prostate): > 100 µM
TGI (CAKI-1 renal): 87.6 µM
TGI (MDA-MB-435): > 31.6 µM
TGI (NCI-H226 lung): 98.9 µM
TGI (NCI/ADR-RES ovarian): > 100 µM
TGI (UACC-62 melanoma): > 31.6 µM
TGI (SK-MEL-28 melanoma): 21.4 µM
TGI (HOP-92 NSCLC): 25.5 µM
TGI (MCF7 breast): > 31.6 µM
TGI (SN12C renal): > 31.6 µM
TGI (LOX IMVI melanoma): > 31.6 µM
TGI (SR leukemia): 24 µM
TGI (SK-MEL-2 melanoma): > 100 µM
TGI (T-47D breast): > 31.6 µM
TGI (EKVX NSCLC): > 31.6 µM
TGI (MALME-3M melanoma): 18.4 µM
TGI (HS 578T breast): > 92.6 µM
TGI (KM12 colon): > 31.6 µM
TGI (HOP-62 NSCLC): > 31.6 µM
